For this assay, the system named is SHSY5Y. Kind of assay: Analogue screening assay, measured by MTT. To be noted: as a percentage compared to SHMOOSE (SHMOOSE activity as 100%). Format: cell-based. From the text: FIG. 10 depicts an analogue screening assay, measured by MTT. Top: each bar represents a fragment (25-amino acid in length) of SHMOOSE. Bottom: each bar represents a phosphomimetic fragment (25-amino acid in length) of SHMOOSE. Cell model is SHSY5Y. The Inventors made 103 analogues/derivatives (see Table 1).
The Inventors made 103 analogues (Table 1). Referring to FIG. 10, in the top figure, each bar represents a 25-amino acid fragment of the SHMOOSE peptide. […] The sequence length of the analogue is 14 amino acids and 3 different analysis windows of the analogue, each having 11 amino acids, were characterized. […]
On to “31 (PNKSNNHAHYYNHPNPDFPNSPHPY) [compound 31]”, for which the “% Efficacy” value is recorded as −477.36%.
Take “105 (MPSCLTTWLSSLLKDNSYPLVLGPKNFGATPNKSNNHAHYYNHPNPDFPNSPHPYHPR) [compound 105]”: the “% Efficacy” value is 44.44%.
Regarding “11 (QLLKDNSYPLVLGPKNFGATPNKSN) [compound 11]”, the “% Efficacy” value is −85.19%.
In the case of “56 (DQLLKDNDDPLVLGPKNFGADPNKD) [compound 56]” it was −93.30%; in that of “36 (PKNFGATPNKSNNHAHYYNHPNPNF) [compound 36]”, −120.40%.
As for “67 (VLGPKNFGADPNKDNNHAHDDNHPN) [compound 67]”, the “% Efficacy” value is −231.08%.
Turning to “100 (MPPCITTWISQIIKDNSYPLVLGPKNFGATPNKSNNHAHYYNHPNPDFPNSPHPYHPR) [compound 100]”, the “% Efficacy” value is given as 4.274%.
As for “41 (ATPNKSNNHAHYYNHPNPNFPNSPH) [compound 41]”, the “% Efficacy” value was −188.45%.
Then “30 (TPNKSNNHAHYYNHPNPDFPNSPHP) [compound 30]”, with −367.82%; and “34 (SNNHAHYYNHPNPDFPNSPHPYHPR) [compound 34]”, with −195.91%; and “47 (MPPCLDDWLDQLLKDNDDPLVLGPK) [compound 47]”, with −150.17%.
In the case of “3 (PCLTTWLSQLLKDNSYPLVLGPKNF) [compound 3]”, the “% Efficacy” value was 115.35%.
Turning to “13 (LKDNSYPLVLGPKNFGATPNKSNNH) [compound 13]”, the “% Efficacy” value is −58.60%.
Regarding “106 (MPSCLTTWLSSLLSDNSYPLVLGPKNFGATPNKSNNHAHYYNHPNPDFPNSPHPYHPR) [compound 106]”, the “% Efficacy” value is listed as −14.53%.
“71 (KNFGADPNKDNNHAHDDNHPNPDFP) [compound 71]”: the “% Efficacy” value was −113.32%.
For the substance “84 (NFGADPNKDNNHAHDDNHPNPNFPN) [compound 84]”, the “% Efficacy” value is reported as −84.90%.
For “5 (LTTWLSQLLKDNSYPLVLGPKNFGA) [compound 5]”, the “% Efficacy” value was −13.61%.
For “7 (TWLSQLLKDNSYPLVLGPKNFGATP) [compound 7]”, the “% Efficacy” value was −113.24%.
For “9 (LSQLLKDNSYPLVLGPKNFGATPNK) [compound 9]”, the “% Efficacy” value is −82.17%.
On to “63 (DDPLVLGPKNFGADPNKDNNHAHDD) [compound 63]”, for which the “% Efficacy” value was −216.49%.
For “48 (PPCLDDWLDQLLKDNDDPLVLGPKN) [compound 48]”, the “% Efficacy” value is listed as −159.22%.
As to “33 (KSNNHAHYYNHPNPDFPNSPHPYHP) [compound 33]”, the “% Efficacy” value is on record as −119.66%.
In the case of “46 (SNNHAHYYNHPNPNFPNSPHPYHPR) [compound 46]”, the “% Efficacy” value is recorded as −59.27%.
As for “50 (CLDDWLDQLLKDNDDPLVLGPKNFG) [compound 50]”, the “% Efficacy” value is −340.42%.
For the substance “60 (KDNDDPLVLGPKNFGADPNKDNNHA) [compound 60]”, the “% Efficacy” value was −146.91%.
For the substance “62 (NDDPLVLGPKNFGADPNKDNNHAHD) [compound 62]”, the “% Efficacy” value is reported as −250.35%.
Then “90 (NKDNNHAHDDNHPNPNFPNDPHPDH) [compound 90]”, with −226.81%.
Regarding “52 (DDWLDQLLKDNDDPLVLGPKNFGAD) [compound 52]”, the “% Efficacy” value is on record as −38.98%.
With “16 (NSYPLVLGPKNFGATPNKSNNHAHY) [compound 16]”, the “% Efficacy” value is −79.03%.
As to “99 (MPPCITTWISQILKDNSYPLVLGPKNFGATPNKSNNHAHYYNHPNPDFPNSPHPYHPR) [compound 99]”, the “% Efficacy” value is on record as −7.692%.
As for “75 (ADPNKDNNHAHDDNHPNPDFPNDPH) [compound 75]”, the “% Efficacy” value is listed as −157.10%.
For the substance “68 (LGPKNFGADPNKDNNHAHDDNHPNP) [compound 68]”, the “% Efficacy” value was −144.36%.
In the case of “6 (TTWLSQLLKDNSYPLVLGPKNFGAT) [compound 6]” it was −42.74%; in that of “40 (GATPNKSNNHAHYYNHPNPNFPNSP) [compound 40]”, −302.11%.
In the case of “86 (GADPNKDNNHAHDDNHPNPNFPNDP) [compound 86]” it was −62.75%; in that of “101 (MPPCLTTWISQIIKDNSYPLVLGPKNFGATPNKSNNHAHYYNHPNPDFPNSPHPYHPR) [compound 101]”, −10.26%.
In the case of “25 (KNFGATPNKSNNHAHYYNHPNPDFP) [compound 25]” it was −8.52%.
Take “10 (SQLLKDNSYPLVLGPKNFGATPNKS) [compound 10]”: the “% Efficacy” value was −107.19%.
Then “69 (GPKNFGADPNKDNNHAHDDNHPNPD) [compound 69]”, with −184.35%; and “102 (MPPCLTTWLSQIIKDNSYPLVLGPKNFGATPNKSNNHAHYYNHPNPDFPNSPHPYHPR) [compound 102]”, with −25.64%; and “78 (NKDNNHAHDDNHPNPDFPNDPHPDH) [compound 78]”, with −240.90%.
On to “73 (FGADPNKDNNHAHDDNHPNPDFPND) [compound 73]”, for which the “% Efficacy” value is listed as −306.02%.
“29 (ATPNKSNNHAHYYNHPNPDFPNSPH) [compound 29]”: the “% Efficacy” value was −262.37%.
Turning to “81 (GPKNFGADPNKDNNHAHDDNHPNPN) [compound 81]”, the “% Efficacy” value is recorded as −172.67%.
As to “28 (GATPNKSNNHAHYYNHPNPDFPNSP) [compound 28]”, the “% Efficacy” value was −229.42%.
Regarding “20 (LVLGPKNFGATPNKSNNHAHYYNHP) [compound 20]”, the “% Efficacy” value was −248.54%.
Then “91 (KDNNHAHDDNHPNPNFPNDPHPDHP) [compound 91]”, with −104.32%.
As for “2 (PPCLTTWLSQLLKDNSYPLVLGPKN) [compound 2]”, the “% Efficacy” value came to 37.99%.
As to “53 (DWLDQLLKDNDDPLVLGPKNFGADP) [compound 53]”, the “% Efficacy” value is −76.54%.
For “32 (NKSNNHAHYYNHPNPDFPNSPHPYH) [compound 32]”, the “% Efficacy” value is recorded as −145.56%.
Then “26 (NFGATPNKSNNHAHYYNHPNPDFPN) [compound 26]”, with −232.44%.
Regarding “8 (WLSQLLKDNSYPLVLGPKNFGATPN) [compound 8]”, the “% Efficacy” value is on record as −3.65%.
For “97 (MPPCITTWLSQLLKDNSYPLVLGPKNFGATPNKSNNHAHYYNHPNPDFPNSPHPYHPR) [compound 97]”, the “% Efficacy” value is reported as −1.709%.
Regarding “14 (KDNSYPLVLGPKNFGATPNKSNNHA) [compound 14]”, the “% Efficacy” value was −147.96%.
Take “104 (MPSCLTTWLSQLLKDNSYPLVLGPKNFGATPNKSNNHAHYYNHPNPDFPNSPHPYHPR) [compound 104]”: the “% Efficacy” value was 82.05%.
“55 (LDQLLKDNDDPLVLGPKNFGADPNK) [compound 55]”: the “% Efficacy” value is listed as −38.64%.
Regarding “45 (KSNNHAHYYNHPNPNFPNSPHPYHP) [compound 45]”, the “% Efficacy” value is −292.14%.
In the case of “38 (NFGATPNKSNNHAHYYNHPNPNFPN) [compound 38]” it was −196.67%.
As to “37 (KNFGATPNKSNNHAHYYNHPNPNFP) [compound 37]”, the “% Efficacy” value is recorded as −227.50%.

Values taken from patent US20240285727A1, “NOVEL THERAPEUTIC PEPTIDES FOR NEURODEGENERATION” (UNIVERSITY OF SOUTHERN CALIFORNIA, priority 2021, published 2024).
